From patent US20150353495A1 (PORTOLA PHARMACEUTICALS, INC., priority 2010, published 2015)
pIC50: −log10 of the molar value.

Experiments:
[1] = test system: markers of allogeneic response (interferon gamma); conditions: kidney allograft patients; cited from earlier work
[2] = target: T1, JAK2 (Homo sapiens, UniProt O60674); experiment: Z'-LYTE kinase assay JAK2; assay type: biochemical
T1 construct: 5 μl of catalytic domain recombinant Kinase enzyme+Tyr peptide substrate (Invitrogen, CA); purchased Invitrogen
Procedure, shortened: (§1)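 Read-out is FRET fluorescence between coumarin and fluorescein on a Tyr6 peptide, lost when the development protease cleaves unphosphorylated substrate. Kinase reaction used recombinant catalytic domain with ATP, 1 h at room temperature, 1% DMSO.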

[3] = target: T2, JAK3 (Homo sapiens, UniProt P52333); experiment: Z'-LYTE kinase assay JAK3; assay type: biochemical
T2 construct: 5 μl of catalytic domain recombinant Kinase enzyme+Tyr peptide substrate (Invitrogen, CA); purchased Invitrogen
Procedure, shortened: as §1

[4] = target: T3, JAK1 (Homo sapiens, UniProt P23458); experiment: Z'-LYTE kinase assay JAK1; assay type: biochemical
T3 construct: 5 μl of catalytic domain recombinant Kinase enzyme+Tyr peptide substrate (Invitrogen, CA); purchased Invitrogen
Procedure, shortened: as §1

[5] = target: T4, full length active recombinant SYK enzyme (Homo sapiens, UniProt P43405); experiment: Inhibition of Syk tyrosine phosphorylation activity (LANCE TR-FRET); assay type: biochemical
T4 construct: full length active recombinant SYK enzyme (Millipore, Calif.); purchased Millipore
Text: This example illustrates methods for evaluating the compounds of the invention, along with results obtained for such assays. The in vitro and in vivo human Syk activities of the inventive compounds can be determined by various procedures known in the art, such as a test for their ability to inhibit the activity of human plasma Syk. […] The IC50 value is the concentration (in nM) of the compound required to provide 50% inhibition of human Syk proteolytic activity.
An in vitro assay for detecting and measuring inhibition activity against Syk is as follows:
Inhibition of Syk Tyrosine Phosphorylation Activity
Potency of candidate molecules for inhibiting Syk tyrosine phosphorylation activity is assessed by measuring the ability of a test compound to inhibit Syk-mediated tyrosine phosphorylation of a Syk-specific substrate.
SYK tyrosine phosphorylation activity is measured using the LANCE™ Technology developed by Perkin Elmer Life and Analytical Sciences (Boston, Mass.). LANCE™ refers to homogeneous time resolved fluorometry applications using techniques such as time-resolved fluorescence resonance energy transfer assay (TR-FRET) (see generally for procedures in Perkin Elmer Application Note-How to Optimize a Tyrosine Kinase Assay Using Time Resolved Fluorescence-Based LANCE Detection, wwww.perkinelmer.com/lifesciences). The assay principle involves detection of a phosphorylated substrate using energy transfer from a phosphospecific europium-labeled antibody to streptavidin-allophycocyanin as an acceptor.
To test the ability of candidate molecules to inhibit SYK tyrosine phosphorylation activity, molecules are reconstituted in 30% DMSO and serially diluted 1:3 with the final dilution containing DMSO in the absence of the candidate molecule. The final DMSO concentration in the assay is 3%. Kinase assays are performed as a two part reaction. The first reaction is a kinase reaction and which comprises of a candidate molecule, full length active recombinant SYK enzyme (Millipore, Calif.) and biotin-labeled SYK-specific substrate biotin-[…]-OH. The second reaction involves termination of the kinase reaction and the simultaneous addition of the detection reagents-europium-labeled anti-phosphotyrosine reagent (Eu-W1024-PY100, Perkin Elmer, Boston, Mass.) and Streptavidin-Allophycocyanin detection reagent (SA-APC, Prozyme, CA). The kinase reaction is performed in a black U-bottom 96-well microtitre plate. The final reaction volume is 50 μL and contains a final concentration of 1 nM active SYK enzyme, 550 nM SYK-substrate, and 100 nM ATP diluted in a buffer containing 50 mM Tris pH 7.5, 5 mM MgCl2, and 1 mM DTT. The reaction is allowed to proceed for 1 hour at room temperature. The quench buffer contains 100 mM Tris pH 7.5, 300 mM NaCl2, 20 mM EDTA, 0.02% Brij35, and 0.5% BSA. The detection reagents are added to the reaction mixture at the following dilutions-1:500 for Eu-W1024-PY100 and 1:250 for SA-APC. The kinase reaction is terminated by the addition of 50 μL quench buffer containing the detection reagents. […] Detection of the phosphorlated substrate in the absence and presence of inhibitors is measured in the TR-FRET instrument, Analyst HT (Molecular Probes, Sunnyvale, Calif.) and the condition for measurements are set up using CriterionHost Release 2.0 (Molecular Probes, Sunnyvale, Calif.). […] Inhibition of SYK-tyrosine kinase activity is calculated as the maximum response observed in the presence of inhibitor, compared to that in the absence of inhibitor. […]

T3 sequence (P23458 875-1153 limits assumed): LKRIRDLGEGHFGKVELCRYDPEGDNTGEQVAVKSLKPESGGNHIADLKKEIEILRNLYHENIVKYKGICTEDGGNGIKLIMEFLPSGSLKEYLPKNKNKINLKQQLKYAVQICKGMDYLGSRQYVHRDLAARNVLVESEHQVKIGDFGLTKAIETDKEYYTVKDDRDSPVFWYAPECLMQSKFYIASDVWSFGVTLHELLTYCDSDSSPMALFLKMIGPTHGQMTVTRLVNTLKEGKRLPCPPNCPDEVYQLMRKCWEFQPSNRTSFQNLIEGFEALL
T2 sequence (P52333 822-1111 limits assumed): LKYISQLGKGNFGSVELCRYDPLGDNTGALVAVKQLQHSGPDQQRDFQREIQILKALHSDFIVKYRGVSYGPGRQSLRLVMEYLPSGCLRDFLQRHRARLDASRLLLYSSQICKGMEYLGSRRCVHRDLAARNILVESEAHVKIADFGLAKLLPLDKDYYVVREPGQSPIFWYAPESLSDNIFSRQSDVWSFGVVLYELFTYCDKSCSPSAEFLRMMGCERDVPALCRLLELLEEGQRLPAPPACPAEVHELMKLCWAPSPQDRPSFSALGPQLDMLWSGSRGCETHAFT
T1 sequence (O60674 849-1124 limits assumed): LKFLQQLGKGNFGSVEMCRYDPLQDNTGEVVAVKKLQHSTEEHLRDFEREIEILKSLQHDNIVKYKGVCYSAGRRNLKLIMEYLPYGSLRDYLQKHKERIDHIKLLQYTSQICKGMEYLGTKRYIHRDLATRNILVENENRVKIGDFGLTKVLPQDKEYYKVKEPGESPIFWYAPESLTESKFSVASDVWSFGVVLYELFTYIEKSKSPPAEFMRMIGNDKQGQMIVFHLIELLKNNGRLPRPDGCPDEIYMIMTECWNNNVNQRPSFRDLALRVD

Question: Which “markers of allogeneic response (interferon gamma)” value [1] does the source give for `C[C@H]1CCN(C(=O)CC#N)C[C@H]1N(C)c1ncnc2[nH]ccc12` [CP-690,550] here?
Answer: can be reduced

Question: Which results are given for `CC(=O)N1CCN(c2ccc(Nc3ccc(C(N)=O)c(NC4CCC4)n3)cc2)CC1` [Example 1, 6-(4-(4-acetylpiperazin-1-yl)phenylamino)-2-(cyclobutylamino)nicotinamide]?
Answer: pIC50 [2]: 6.00 to 7.00; pIC50 [3]: 6.00 to 7.00; pIC50 [4]: 6.00 to 7.00; pIC50 [5]: < 6.00

Question: With `NC(=O)c1cnc(Nc2cccc(OCCN3CCOCC3)c2)cc1N[C@H](CO)c1ccccc1` [Example 230] as the compound, how does the pIC50 [2] read?
Answer: 6.00 to 7.00

Question: What about the pIC50 [3] of the same compound?
Answer: 8.00 to 9.00

Question: And the pIC50 [4]?
Answer: < 6.00

Question: And the pIC50 [5]?
Answer: < 6.00

Question: Which results are given for `CC(=O)N1CCN(c2ccc(Nc3cc(N[C@H](CO)c4ccccc4)c(C(N)=O)cn3)cc2)CC1` [Example 231]?
Answer: pIC50 [2]: 6.00 to 7.00; pIC50 [3]: 8.00 to 9.00; pIC50 [4]: < 6.00; pIC50 [5]: < 6.00
